From US20110236397A1, “LIMITED PROTEOLYSIS OF CD2AP AND PROGRESSION OF RENAL DISEASE” (University of Miami, priority 2008, published 2011)
Residues, ends and D or L forms follow the SMILES beside them. *: point of attachment. Cbz = O=C(OCc1ccccc1)*; CH2F = FC*

Experiments:
podocytes = details: in vivo; cited from earlier work
[1] = tested on: rat glomerulonephritis model; details: cited from earlier work
cathepsin L [2] = experiment: Cellular CatL cleavage assay: CD2AP-FLAG HEK293 cells co-transfected with cathepsin L constructs; format: cell-based; details: for cleavage of CD2AP into p32 by WT cathepsin L: WT cathepsin L (pre-pro and short form), co-incubation with inhibitor; for cleavage of CD2AP into p32 by cytosolic (short, CatL M1) cathepsin L: cytosolic cathepsin L alone, inhibitor added
Excerpt: FIG. 2A is a scan of a photograph showing a silver stained gel of FLAG-CD2AP after cleavage with CatL at various pH. FIG. 2B is a scan of a photograph showing an immunoblot of cleaved CD2AP fragments that are tagged with a N-terminal GFP. GFP-CD2AP is stable in the absence of CatL enzyme. Cleavage of CD2AP at pH 4.5 and 5.5 leads to complete digestion of the protein. At pH 7.0, CD2AP is cleaved into a stable 55 kD fragment (▪) as detected with an anti-GFP antibody. The same fragment is detected with the CD2AP antiserum which is raised against the SH3 domains of CD2AP (anti-N-CD2AP). The CD2AP antiserum also detects a weak band corresponding to a 44 kD fragment (▴, detected by the affinity of the antibody to the C-terminal SH3, anti-C-CD2AP). FIG. 2C is a schematic representation showing the match of cleavage fragments with predicted CatL cleavage site QPLGS. FIG. 2D is a blot showing that CatL cleaves CD2AP-FLAG yielding a 44 kD (▴) and a 32 kD ([…]) fragment. FIG. 2E is a schematic representation showing that both fragments have corresponding predictions in the amino acid sequence of CD2AP (QPLGS and LSAAE). FIG. 2F is a blot showing results from a cellular CatL cleavage assay: Wild type (WT) CatL (pre-pro CatL and short form) cleaves CD2AP in HEK293 cells. […] Short CatL (CatL M1) is sufficient to cleave CD2AP yielding a 32 kD fragment ([…]). This cleavage is abrogated by a specific CatL inhibitor. FIG. 2G is a blot showing that deletion of the CatL cleavage site LSAAE protects CD2AP from limited proteolysis into the 32 kD fragment ([…]).
Cell culture and transient transfection. Mouse podocytes were cultured as described previously (Mundel, P. et al. Exp. Cell Res. 236, 248-258 (1997)). HEK293 cells were maintained and transfected as previously reported (Reiser, J. et al. Nat. Genet. 37, 739-744 (2005)).
Next, it was investigated whether cytosolic cathepsin L in cells is sufficient to process CD2AP. CD2AP-FLAG expressing HEK293 cells were co-transfected with WT cathepsin L […] which generates cytosolic and lysosomal cathepsin L protein and a cathepsin L construct that contains a deletion of the first AUG site and thus encodes selectively for the cytosolic form of cathepsin L. The experiments were performed in the presence or absence of a specific cathepsin L inhibitor (FIG. 2F). WT cathepsin L led to cleavage of CD2AP yielding p32. […] More importantly, transfection of cytosolic cathepsin L alone was sufficient to cleave CD2AP resulting in the production of p32 (FIG. 2F). […] The stable p32 fragment was identified in the cleavage assays at neutral pH (FIG. 2A). In addition, this fragment was generated in HEK 293 cells using cytosolic cathepsin L. Therefore, this fragment was regarded as an end-product generated through cytosolic cathepsin L cleavage. […]

cathepsin L [3] = experiment: Cathepsin L activity assay in glomerular extracts (fluorogenic substrate CV-(FR)2); format: biochemical, mouse; details: LPS treated mice, co-incubation
Description: Isolation and processing of glomeruli. Glomeruli were isolated from kidneys of 8-12 weeks old LPS- and PBS-treated (control) mice using a sequential sieve technique with mesh sizes of 180, 100, and 71 μm. The fraction collected from the 71-μm sieve was maintained for soup/pellet fractionation. Isolated glomeruli were homogenized in buffer containing 20 mM HEPES pH 7.5, 100 mM NaCl, 1 mM MgCl2, 1 mM PMSF, protease inhibitors (Roche), calpain inhibitor (Calbiochem), and E-64d (Calbiochem) using Dounce homogenizer. Subsequently, cytosol was centrifuged for 10 min at 4,600 g. Proteins were solubilized by 1% Triton X-100, 1 hour at 4° C., before it was spun at 70,000 g for 1 hour.
Cathepsin L activity assay. Subcellular sites of cathepsin L and cathepsin B activity in glomerular extracts were visualized by a fluorogenic substrate, CV—(FR)2, which emits light upon cleavage by cathepsin L or cathepsin B (Biomol).
To test the significance of this prediction, glomeruli were isolated from control mice and animals that were injected with low-dose lipopolysaccharide (LPS), a treatment causing high levels of cytosolic cathepsin L in podocytes. The tissue samples were further processed to obtain cytosolic and membrane-bound glomerular extracts (FIG. 1A). […]

cathepsin B = cathepsin B (Homo sapiens, UniProt P07858); details: cited from earlier work
[4] = listed as specific CatL inhibitor

## CC(C)C[C@H](NC(=O)[C@H]1O[C@@H]1C(=O)O)C(=O)NCCCCN=C(N)N [E64]
podocytes
  protection against proteinuria: safeguard against proteinuria
[1]
  experimental proteinuria: can reduce experimental proteinuria

## O=C(NC(Cc1ccccc1)C(=O)NC(Cc1ccccc1)C(=O)CF)OCc1ccccc1 (stereo not drawn) [Z-FF-FMK] (Cbz-Phe-Phe-CH2F; configuration not given here)
Cathepsin L [2]; [4]
  cleavage of CD2AP into p32 by WT cathepsin L: can be prevented
  cleavage of CD2AP into p32 by cytosolic (short, CatL M1) cathepsin L: abrogated
Cathepsin L [2]; listed as specific cathepsin L inhibitor
  cleavage of CD2AP into p32 by WT cathepsin L: could be prevented
Cathepsin L [2]; listed as cathepsin L inhibitor
  cleavage of CD2AP into p32 by cytosolic (short, CatL M1) cathepsin L: could be blocked
Cathepsin L [3]
  inhibition of cathepsin L activity in cytosolic extract of glomeruli: could be inhibited
Cathepsin B
  inhibition of cathepsin B: does not inhibit cathepsin B

## CC(C)[C@@H]1NC(=O)[C@@H](Cc2ccccc2)NC(=O)[C@H](CC(=O)O)NC(=O)CNC(=O)[C@H](CCCN=C(N)N)NC1=O [cycloRGDfV]
podocytes
  protection against proteinuria: safeguard against proteinuria

## CCN(CC)CCCC(C)Nc1nc(C)cc(Nc2ccc3nc(C)cc(N)c3c2)n1 (centres unmarked) [NSC23766]
podocytes
  protection against proteinuria: safeguard against proteinuria

## COC(=O)[C@@H]1CC2=CC(=O)CC[C@]2(C)[C@@]23O[C@@H]2C[C@@]2(C)[C@@H](CC[C@@]24CCC(=O)O4)[C@H]13 [Epleronone]
podocytes
  protection against proteinuria: safeguard against proteinuria
